Laboratory results published in ChEMBL document CHEMBL2311273, “Discovery of potent, selective multidrug and toxin extrusion transporter 1 (MATE1, SLC47A1) inhibitors through prescription drug profiling and computational modeling” (J Med Chem, 2013).

Assays:
Type in all cases: cell-based
[1] = molecular target: T1, Multidrug and toxin extrusion protein 1 (Homo sapiens, UniProt Q96FL8); test: Inhibition of human MATE1-mediated ASP+ uptake expressed in HEK293 cells after 1.5 mins by fluorescence assay
T1 sequence (Q96FL8 whole entry): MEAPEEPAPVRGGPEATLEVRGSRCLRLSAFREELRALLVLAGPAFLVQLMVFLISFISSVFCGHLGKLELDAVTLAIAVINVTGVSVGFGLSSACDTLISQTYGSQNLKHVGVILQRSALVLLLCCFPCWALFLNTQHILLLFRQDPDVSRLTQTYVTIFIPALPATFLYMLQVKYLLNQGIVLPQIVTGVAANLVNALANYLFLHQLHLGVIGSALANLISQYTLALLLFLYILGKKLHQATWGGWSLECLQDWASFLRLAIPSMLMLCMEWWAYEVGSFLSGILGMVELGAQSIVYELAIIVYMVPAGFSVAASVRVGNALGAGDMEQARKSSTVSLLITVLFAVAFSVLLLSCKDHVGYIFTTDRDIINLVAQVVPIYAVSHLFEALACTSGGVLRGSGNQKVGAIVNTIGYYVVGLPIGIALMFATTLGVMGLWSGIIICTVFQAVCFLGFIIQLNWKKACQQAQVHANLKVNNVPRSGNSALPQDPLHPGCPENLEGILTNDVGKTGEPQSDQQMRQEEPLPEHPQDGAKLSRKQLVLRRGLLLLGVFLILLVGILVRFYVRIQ

[2] = molecular target: T2, MATE1 (multidrug and toxin extrusion protein 1) (Homo sapiens, UniProt Q96FL8); test: (§1) Inhibition of human MATE1-mediated ASP+ uptake expressed in HEK293 cells at 20 uM after 1.5 mins by fluorescence assay; conditions: HEK293 cells expressing human MATE1, probe ASP+
T2 sequence (Q96FL8 whole entry): T1 sequence (Q96FL8 whole entry)

[3] = molecular target: T3, Multidrug and toxin extrusion protein 2 (Homo sapiens, UniProt Q86VL8); test: Inhibition of human MATE2K-mediated ASP+ uptake expressed in HEK293 cells after 1.5 mins by fluorescence assay
T3 sequence (Q86VL8 whole entry): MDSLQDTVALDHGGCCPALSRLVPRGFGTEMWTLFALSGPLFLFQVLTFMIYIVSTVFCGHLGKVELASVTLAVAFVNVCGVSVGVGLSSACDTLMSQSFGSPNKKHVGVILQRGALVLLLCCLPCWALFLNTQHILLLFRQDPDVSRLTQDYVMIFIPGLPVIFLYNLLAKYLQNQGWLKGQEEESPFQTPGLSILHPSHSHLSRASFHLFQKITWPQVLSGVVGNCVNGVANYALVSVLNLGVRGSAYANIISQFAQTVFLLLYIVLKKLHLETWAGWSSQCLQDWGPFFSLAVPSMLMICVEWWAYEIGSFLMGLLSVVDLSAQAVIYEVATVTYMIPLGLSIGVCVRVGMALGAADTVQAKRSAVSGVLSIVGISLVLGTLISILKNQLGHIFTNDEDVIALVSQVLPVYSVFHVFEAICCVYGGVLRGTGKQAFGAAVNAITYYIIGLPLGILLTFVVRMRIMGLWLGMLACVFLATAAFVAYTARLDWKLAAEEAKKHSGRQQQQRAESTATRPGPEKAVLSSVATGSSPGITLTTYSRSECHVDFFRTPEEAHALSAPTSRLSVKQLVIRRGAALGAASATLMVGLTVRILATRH

[4] = molecular target: T4, Solute carrier family 22 member 2 (Homo sapiens, UniProt O15244); test: Inhibition of human OCT2-mediated ASP+ uptake expressed in HEK293 cells after 3 mins by fluorescence assay
T4 sequence (O15244 whole entry): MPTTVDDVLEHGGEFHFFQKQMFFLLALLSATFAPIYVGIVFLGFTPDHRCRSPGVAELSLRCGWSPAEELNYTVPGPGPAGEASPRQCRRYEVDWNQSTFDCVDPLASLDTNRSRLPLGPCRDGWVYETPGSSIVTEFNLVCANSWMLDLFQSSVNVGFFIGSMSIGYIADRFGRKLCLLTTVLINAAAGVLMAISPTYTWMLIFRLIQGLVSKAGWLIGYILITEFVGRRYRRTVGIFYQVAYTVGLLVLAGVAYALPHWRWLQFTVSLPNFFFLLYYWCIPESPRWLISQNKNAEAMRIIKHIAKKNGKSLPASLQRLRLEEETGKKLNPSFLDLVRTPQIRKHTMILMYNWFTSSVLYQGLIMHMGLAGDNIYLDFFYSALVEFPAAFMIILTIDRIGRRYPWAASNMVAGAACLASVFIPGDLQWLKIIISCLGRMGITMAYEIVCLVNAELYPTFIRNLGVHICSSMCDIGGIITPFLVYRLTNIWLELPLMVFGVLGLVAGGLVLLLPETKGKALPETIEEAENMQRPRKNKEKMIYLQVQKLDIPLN

[5] = molecular target: T1, Multidrug and toxin extrusion protein 1; test: as §1; conditions: hek293, […], 20 µM

Structure (SMILES)	IC50 [1]	inhibition at […], 20 µM [2]	IC50 [3]	IC50 [4]	INH [5]
CCCc1nc2c(C)cc(-c3nc4ccccc4n3C)cc2n1Cc1ccc(-c2ccccc2C(=O)O)cc1	17.9 µM	38%			
CNS(=O)(=O)Cc1ccc2[nH]cc(CCN(C)C)c2c1	6.7 µM	7%			
CCOC(=O)[C@H](CCc1ccccc1)N[C@@H](C)C(=O)N1CCC[C@H]1C(=O)O	> 500 µM	23%			
COc1ccc(CCN2CCC(Nc3nc4ccccc4n3Cc3ccc(F)cc3)CC2)cc1 [ASTEMIZOLE]	26.4 µM	34%			
Nc1ncn([C@@H]2O[C@H](CO)[C@@H](O)[C@H]2O)c(=O)n1 [AZACITIDINE]		50%			
O=C1CC2(CCCC2)CC(=O)N1CCCCN1CCN(c2ncccn2)CC1 [BUSPIRONE]			46 µM	12 µM	
CN(C)C(=O)COC(=O)Cc1ccc(OC(=O)c2ccc(NC(=N)N)cc2)cc1 [CAMOSTAT]			12.7 µM	16.5 µM	77%
Cc1cc(C2CCCCC2)n(O)c(=O)c1 [CICLOPIROX]	> 500 µM	52%			
Clc1cccc(Cl)c1N=C1NCCN1 [CLONIDINE]	33.3 µM	1%			
C[C@]12CCC(=O)C=C1CC[C@@H]1[C@@H]2C(=O)C[C@@]2(C)[C@H]1CC[C@]2(O)C(=O)CO [CORTISONE]		10%			
[H]/N=C(/N)c1ccc(NCc2nc3cc(C(=O)N(CCC(=O)O)c4ccccn4)ccc3n2C)cc1 [DABIGATRAN]	8.1 µM		25.3 µM	4.7 µM	
C[C@@H]1C[C@H]2[C@@H]3CCC4=CC(=O)C=C[C@]4(C)[C@@]3(F)[C@@H](O)C[C@]2(C)[C@@]1(O)C(=O)CO [DEXAMETHASONE]	> 500 µM	30%			
CN1C[C@H](C(=O)N[C@]2(C)O[C@@]3(O)[C@@H]4CCCN4C(=O)[C@H](Cc4ccccc4)N3C2=O)C[C@@H]2c3cccc4[nH]cc(c34)C[C@H]21 [DIHYDROERGOTAMINE]	2.8 µM		12.6 µM	49.9 µM	72%
O=c1[nH]c2ccccc2n1CCCN1CCC(n2c(=O)[nH]c3cc(Cl)ccc32)CC1 [DOMPERIDONE]			14.8 µM	7.9 µM	66%
NC1=NCC2c3ccccc3Cc3ccccc3N12 (stereo not given) [EPINASTINE]	1.1 µM		29.8 µM	4.3 µM	97%
CC[C@H]1OC(=O)[C@H](C)[C@@H](O[C@H]2C[C@@](C)(OC)[C@@H](O)[C@H](C)O2)[C@H](C)[C@@H](O[C@@H]2O[C@H](C)C[C@H](N(C)C)[C@H]2O)[C@](C)(O)C[C@@H](C)C(=O)[C@H](C)[C@@H](O)[C@]1(C)O [ERYTHROMYCIN]	> 500 µM				
C#C[C@]1(O)CC[C@H]2[C@@H]3CCc4cc(O)ccc4[C@H]3CC[C@@]21C [ETHINYL ESTRADIOL]	21.1 µM		20.2 µM	2.2 µM	60%
CCOC(=O)c1ccc(OC(=O)CCCCCNC(=N)N)cc1 [GABEXATE]	0.5 µM	96%	10.8 µM	0.9 µM	

Structure (SMILES)	IC50 [1]	inhibition at […], 20 µM [2]	IC50 [3]	IC50 [4]	INH [5]
CN1C2CCCC1CC(NC(=O)c1nn(C)c3ccccc13)C2 (stereo not given) [GRANISETRON]			311 µM	4.3 µM	67%
COc1ccc2c(c1)c(CC(=O)O)c(C)n2C(=O)c1ccc(Cl)cc1 [INDOMETHACIN]		6%			
CCCCC1=NC2(CCCC2)C(=O)N1Cc1ccc(-c2ccccc2-c2nnn[nH]2)cc1 [IRBESARTAN]		15%			
CCCCc1nc(Cl)c(CO)n1Cc1ccc(-c2ccccc2-c2nn[nH]n2)cc1 [LOSARTAN]		12%			
O=C(O)c1cccnc1 [NIACIN]		54%			
CCOc1ccc(NC(C)=O)cc1 [PHENACETIN]		53%			
O=c1[nH]c2ccccc2n1C1CCN(CCCC(c2ccc(F)cc2)c2ccc(F)cc2)CC1 [PIMOZIDE]			> 500 µM	34.2 µM	
COc1cc2nc(N3CCN(C(=O)c4ccco4)CC3)nc(N)c2cc1OC [PRAZOSIN]			38.4 µM		
C=C[C@H]1C[N@@]2CC[C@H]1C[C@@H]2[C@@H](O)c1ccnc2ccc(OC)cc12 [QUINIDINE]		28%			
CNC(=C[N+](=O)[O-])NCCSCc1ccc(CN(C)C)o1 [RANITIDINE]		29%			
CC(N)C12CC3CC(CC(C3)C1)C2 (stereo not given) [RIMANTADINE]	7.3 µM		288 µM	4.4 µM	74%
CC(=O)S[C@@H]1CC2=CC(=O)CC[C@]2(C)[C@H]2CC[C@@]3(C)[C@@H](CC[C@@]34CCC(=O)O4)[C@H]12 [SPIRONOLACTONE]	18.6 µM	27%			
c1ccc2[nH]c(-c3cscn3)nc2c1 [THIABENDAZOLE]	> 500 µM	55%			
CC[C@@]1(O)C(=O)OCc2c1cc1n(c2=O)Cc2cc3c(CN(C)C)c(O)ccc3nc2-1 [TOPOTECAN]	1.3 µM		8.6 µM	61 µM	50%
COc1cc2c3cc1Oc1cc(ccc1O)C[C@@H]1c4c(cc(OC)c(O)c4Oc4ccc(cc4)C[C@@H]3N(C)CC2)CC[N+]1(C)C [TUBOCURARINE]	9.4 µM		55.5 µM	78.8 µM	95%
CC(=O)O[C@H]1C[C@@H]2CC[C@@H]3[C@H](CC[C@@]4(C)[C@H]3C[C@H]([N+]3(C)CCCCC3)[C@@H]4OC(C)=O)[C@@]2(C)C[C@@H]1N1CCCCC1.[Br-] [VECURONIUM BROMIDE]	1.9 µM		25.2 µM	3.5 µM	85%
COc1cc(C(=O)NS(=O)(=O)c2ccccc2C)ccc1Cc1cn(C)c2ccc(NC(=O)OC3CCCC3)cc12 [ZAFIRLUKAST]			7.6 µM	9.7 µM	52%
